According to patent US20150018566A1, “TUBULIN BINDING AGENTS” (priority 2011, published 2015):
Where two headings read alike, the source gives them in different places. Values belong to the molecule of their own block, whether it stands above or below them.

Columns and labels:
[1] = target: T1, APN enzyme present on HUVECs (Homo sapiens, UniProt P15144); assay: APN cell-based assay, HUVECs
T1 construct: The presence of APN-expres sing cells replaced the step of the addition of the actual APN enzyme; host or cells: HUVECs
Procedure: (§1) To further investigate the APN inhibitory effect of the hybrids the APN cell-based assay was carried out as previously described using both HUVECs and PC-3 cells. In order to exclude any possible cytotoxic effects of the tubulin component of the hybrids that could interfere with the outcome of the results, it was necessary to perform cytotoxicity assays. For this purpose, the MTT assay was used as previously described; however the duration of compounds' incubation was modified to 2 h in order to correlate with the incubation period of APN cell-based assay. The presence of APN-expres sing cells replaced the step of the addition of the actual APN enzyme and the rest of the protocol remained the same. The release of the resulting product p-nitroaniline was measured spectrophotometrically at 405 nm and the level of APN present […] the cells was directly related to the intensity of the colour absorbance.
(§2) HUVECs/PC-3 cells' surface APN activity was estimated spectrophotometrically using L-leucine-p-nitroanilide as an APN substrate. 1×10^6 cells/ml ([…]) were seeded in 96-well plate and incubated overnight at 37° C. The following day cell medium was replaced by various concentrations of compounds diluted in HEPES buffer (100 μl). […] L-leucine-p-nitroanilide (50 μl) was added to each well to give a final concentration of 2 mM. Following 2 h incubation at 37° C., absorbance was measured at 405 nm using a FLUOstar OPTIMA microplate reader (BMG labtech). Each compound concentration was tested in quadruplicate and each experiment was performed at three independent times. The percentage APN inhibition was determined using the formula below and where appropriate, IC50 values were obtained.
(§3) % APN inhibition=100−[(mean Abs of test compound)/(mean Abs of control)]*100

[2] = target: T2, APN enzyme present on PC-3 cells (Homo sapiens, UniProt P15144); assay: APN cell-based assay, PC-3 cells
T2 construct: PC-3 cell line was selected due to its high expression of APN; host or cells: PC-3
Procedure: as §1, §2, §3

HUVECs [3] = assay: Cell cycle analysis, G2/M phase, PI staining and flow cytometry; type: cell-based, human; settings: 24 h treatment
Description: Proliferating cells are constantly dividing to produce daughter cells. The most obvious cellular structure that requires duplication and division is the cell nucleus where DNA, cell's genetic material is present. During a cell cycle there are changes in the DNA content and thus there are different cycle stages including G0, G1, S, G2 and M (mitosis). The G0 stage of the cycle is a subset of G1 where the cells are quiescent and have limited cellular functions. Cells remain in the G1 portion of the cycle when are not in a process of cell division and thus G1 phase is the most predominant phase of the cycle appearing as the largest peak. In addition, during the G1 phase synthesis of many RNA and protein molecules is taking place which are necessary for DNA synthesis. G2 phase is a period for repair of any damaged DNA and for reorganisation of the DNA structure before entering the M phase. Cell cycle abnormalities could be a sign of cell damage, for example DNA damage causes interruption of the cell cycle at certain checkpoints such as the spindle assembly checkpoint (SAC) to prevent carcinogenesis.
The mitotic spindle is composed of microtubules which together with regulatory proteins assist in the activity of properly segregating replicated chromosomes. It is well established that treatment of cells with tubulin polymerization inhibitors causes a G2/M phase arrest of the cell cycle and thus an observable increased DNA content at that stage.
For this reason, cell cycle analysis was carried out using propidium iodide (PI) staining. The first protocol was presented by Krishan in 1975 [6]. The first step involves permeabilisation of the cells' plasma membrane by fixating the cells in ethanol in order for the fluorescent DNA dye to pass through the membrane and into the cells. Ribonuclease A (RNase A) was used to eliminate any RNA present inside the cells in order to avoid creating artefacts that could affect the results. PI was used for the staining of the cells' DNA content; however other fluorescent dyes can be used instead, such as DAPI and Hoechst 33342.
Flow cytometry was used to quantify the DNA contents of the cells. This is a technique which was first introduced by Fulwyler which examines and counts cells or other microscopic particles by suspending them in a stream of fluid and passing them by an electronic detection apparatus. Cells had to pass through the flow cytometer's laser where a fluorescence pulse was generated and it correlated with the amount of DNA dye present inside the cells. […]
Cell cycle arrest at the G2/M phase was examined by PI-staining. […] Cell suspension was kept at 4° C. until ready for analysis. […] Samples were analyzed using a Beckman Coulter (Dako) 2-laser CyAn ADP analyser provided by the Department of Biochemistry, TCD. […]

tubulin = target: T3, tubulin (Sus scrofa, UniProt P02550+P02554); assay: Tubulin assembly assay (tubulin binding); type: biochemical, porcine
T3 construct: The procedure used is modified from Shelanski et al; from tissue

HUVECs [4] = assay: MTT cytotoxicity assay, HUVECs; type: cell-based, human
Procedure: as §1
Cell growth inhibition was assessed using the MTT assay. 5×10^4 cells/ml HUVECs or PC-3 cells (180 μl) were inoculated into each well of a 96-well plate and incubated overnight at 37° C. Compounds or control solutions (20 μl) were added into each well and the plates were incubated for 72 h. CA-4 was used as a positive control. […] The percentage growth inhibition was determined using the formula below and the results were expressed in terms of IC50 values.

[5] = HUVEC, read-out: percentage APN inhibition

T1 sequence (P15144 whole entry): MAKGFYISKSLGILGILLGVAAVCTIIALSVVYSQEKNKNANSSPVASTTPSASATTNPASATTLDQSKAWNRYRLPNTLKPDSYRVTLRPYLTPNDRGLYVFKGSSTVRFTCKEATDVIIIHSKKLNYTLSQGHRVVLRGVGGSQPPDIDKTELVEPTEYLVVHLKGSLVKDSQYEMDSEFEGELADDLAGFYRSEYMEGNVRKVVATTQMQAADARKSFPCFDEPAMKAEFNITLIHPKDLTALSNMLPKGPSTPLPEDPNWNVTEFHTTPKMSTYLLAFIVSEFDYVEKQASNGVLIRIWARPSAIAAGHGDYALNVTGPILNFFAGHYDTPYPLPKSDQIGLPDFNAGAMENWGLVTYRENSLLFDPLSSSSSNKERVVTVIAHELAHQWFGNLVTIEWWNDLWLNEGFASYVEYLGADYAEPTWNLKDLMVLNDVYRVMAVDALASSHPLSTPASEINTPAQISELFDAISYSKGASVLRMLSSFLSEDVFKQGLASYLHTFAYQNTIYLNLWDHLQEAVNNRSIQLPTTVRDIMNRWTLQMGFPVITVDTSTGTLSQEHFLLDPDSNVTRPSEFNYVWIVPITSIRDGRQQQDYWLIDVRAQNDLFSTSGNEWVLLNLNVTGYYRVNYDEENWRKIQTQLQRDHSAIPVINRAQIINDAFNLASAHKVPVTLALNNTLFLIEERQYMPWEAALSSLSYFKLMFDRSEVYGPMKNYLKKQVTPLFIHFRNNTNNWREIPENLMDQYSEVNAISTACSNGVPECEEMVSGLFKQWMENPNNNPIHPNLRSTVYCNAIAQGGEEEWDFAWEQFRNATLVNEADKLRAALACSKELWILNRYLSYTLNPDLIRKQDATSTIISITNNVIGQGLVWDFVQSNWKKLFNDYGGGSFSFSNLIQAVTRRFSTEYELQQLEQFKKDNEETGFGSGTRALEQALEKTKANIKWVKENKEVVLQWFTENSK
T2 sequence (P15144 whole entry): as above
T3 sequence (P02550 whole entry): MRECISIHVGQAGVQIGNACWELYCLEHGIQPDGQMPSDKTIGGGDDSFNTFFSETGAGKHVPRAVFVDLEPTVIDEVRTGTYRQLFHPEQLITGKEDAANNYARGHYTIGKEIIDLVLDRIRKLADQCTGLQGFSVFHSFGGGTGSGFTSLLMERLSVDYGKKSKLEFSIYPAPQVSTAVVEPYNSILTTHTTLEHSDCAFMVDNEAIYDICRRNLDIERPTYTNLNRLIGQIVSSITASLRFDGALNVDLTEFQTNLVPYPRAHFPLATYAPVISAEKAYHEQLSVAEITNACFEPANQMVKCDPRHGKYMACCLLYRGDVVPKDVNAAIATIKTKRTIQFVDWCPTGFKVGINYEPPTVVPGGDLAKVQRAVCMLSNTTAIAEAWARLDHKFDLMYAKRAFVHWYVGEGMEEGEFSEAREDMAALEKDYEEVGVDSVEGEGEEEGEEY
T3 sequence (P02554 whole entry): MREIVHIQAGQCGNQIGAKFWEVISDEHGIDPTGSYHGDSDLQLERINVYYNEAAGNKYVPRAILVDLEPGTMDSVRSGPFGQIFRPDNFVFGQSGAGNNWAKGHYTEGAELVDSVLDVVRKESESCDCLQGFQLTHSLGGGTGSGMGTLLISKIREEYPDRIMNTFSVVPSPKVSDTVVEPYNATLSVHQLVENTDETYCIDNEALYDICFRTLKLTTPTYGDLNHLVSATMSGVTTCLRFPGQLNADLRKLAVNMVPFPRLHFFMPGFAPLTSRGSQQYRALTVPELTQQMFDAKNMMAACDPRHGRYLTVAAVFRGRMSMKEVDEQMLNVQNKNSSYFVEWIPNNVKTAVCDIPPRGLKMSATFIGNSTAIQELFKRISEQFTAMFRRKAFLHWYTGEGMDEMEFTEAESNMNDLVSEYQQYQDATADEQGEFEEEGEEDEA

SMILES: COc1ccc(C2=CC(=O)CCc3c2cc(OC)c(OC)c3OC)cc1OC(=O)C(CC(C)C)NC(=O)C(O)C(N)Cc1ccccc1.Cl (centres unmarked) [Compound 44]
inhibition at 0.1 µM [1, 5]: 31.9 ± 19%
inhibition at 1 µM [1, 5]: 52.6 ± 14.7%
inhibition at 5 µM [1, 5]: 64 ± 16.1%
percentage APN inhibition ([2]; 1 μM, PC-3 cells, 2 h incubation): 31.3±8.9%
percentage APN inhibition ([2]; 5 μM, PC-3 cells, 2 h incubation): 51.7±8.5%
percentage APN inhibition ([2]; 10 μM, PC-3 cells, 2 h incubation): 55.7±9.8%
percentage APN inhibition ([2]; 20 μM, PC-3 cells, 2 h incubation): 71.4±7.5%
inhibition at 1 µM ([2]; PC-3, read-out: percentage APN inhibition, 1 μM, PC-3 cells, 2 h incubation): 27.8 ± 2.1%
inhibition at 5 µM ([2]; PC-3, read-out: percentage APN inhibition, 5 μM, PC-3 cells, 2 h incubation): 44.6 ± 7.3%
inhibition at 10 µM ([2]; PC-3, read-out: percentage APN inhibition, 10 μM, PC-3 cells, 2 h incubation): 63.7 ± 7.68%
inhibition at 20 µM ([2]; PC-3, read-out: percentage APN inhibition, 20 μM, PC-3 cells, 2 h incubation): 53.4 ± 16.1%
APN inhibition relative to bestatin ([2]; PC-3 cells): 2 fold

SMILES: COc1ccc(C2=CC(=O)CCc3c2cc(OC)c(OC)c3OC)cc1O [Compound 1, (Z)-8,9-dihydro-5-(3-hydroxy-4-methoxyphenyl)-1,2,3-trimethoxybenzo[7]annulen-7-one]
percentage of cells in the G2/M phase (HUVECs [3]; 0.5 μM): 86.3±2.3%
percentage of cells in the G2/M phase (HUVECs [3]; 1 μM): 79.35±1.7%
IC50 (tubulin): 1050 nM

SMILES: COc1ccc(C2=CC(=O)CCc3c2cc(OC)c(OC)c3OC)cc1N [Compound 28, 2-methoxy-5-(2,3,4-trimethoxy-7-oxo-6,7-dihydro-5H-benzo[7]annulen-9-yl)benzenaminium chloride]
percentage of cells in the G2/M phase (HUVECs [3]; 0.5 μM): 81.25±0.6%
percentage of cells in the G2/M phase (HUVECs [3]; 1 μM): 76.07±4.82%

inhibition at 0.1 µM ([1]; HUVEC, 0.1 μM, HUVECs, 2 h incubation, read-out: percentage APN inhibition): 18.1 ± 2.9%
inhibition at 0.5 µM ([1]; HUVEC, 0.5 μM, HUVECs, 2 h incubation, read-out: percentage APN inhibition): 21.6 ± 2.2%
APN inhibition relative to bestatin ([1]; HUVECs): superior activity to that of bestatin
inhibition at 1 µM ([2]; 1 μM, PC-3 cells, 2 h incubation, read-out: percentage APN inhibition): 47.9 ± 1.23%
inhibition at 5 µM ([2]; 5 μM, PC-3 cells, 2 h incubation, read-out: percentage APN inhibition): 51.7 ± 1.38%
inhibition at 10 µM ([2]; 10 μM, PC-3 cells, 2 h incubation, read-out: percentage APN inhibition): 51.9 ± 3.89%
inhibition at 20 µM ([2]; 20 μM, PC-3 cells, 2 h incubation, read-out: percentage APN inhibition): 56.5 ± 3.13%
SMILES: COc1ccc(C2=CC(=O)COc3c2cc(OC)c(OC)c3OC)cc1OC(=O)C(CC(C)C)NC(=O)C(O)C(N)Cc1ccccc1.Cl (centres unmarked) [Compound 45, 2-methoxy-5-(7,8,9-trimethoxy-3-oxo-2H-1-benzoxepin-5-yl)phenyl 2-(3-amino-2-hydroxy-4-phenylbutanamido)-4-methylpentanoate]
APN inhibition relative to bestatin ([2]; PC-3 cells): significantly more potent APN inhibitor than bestatin
cytotoxic effect on HUVECs (HUVECs [4]): potent cytotoxic effect
